T1: TcCAT1.1 (Trypanosoma cruzi, UniProt A0A0H4FPU8)
T1 construct: gene C3747_66g20; full-length ORF, untagged, pYES2, expressed in S. cerevisiae HSC100-3C (can1 gap1 lyp1); 10 predicted transmembrane helices
T1 sequence (A0A0H4FPU8 1-448): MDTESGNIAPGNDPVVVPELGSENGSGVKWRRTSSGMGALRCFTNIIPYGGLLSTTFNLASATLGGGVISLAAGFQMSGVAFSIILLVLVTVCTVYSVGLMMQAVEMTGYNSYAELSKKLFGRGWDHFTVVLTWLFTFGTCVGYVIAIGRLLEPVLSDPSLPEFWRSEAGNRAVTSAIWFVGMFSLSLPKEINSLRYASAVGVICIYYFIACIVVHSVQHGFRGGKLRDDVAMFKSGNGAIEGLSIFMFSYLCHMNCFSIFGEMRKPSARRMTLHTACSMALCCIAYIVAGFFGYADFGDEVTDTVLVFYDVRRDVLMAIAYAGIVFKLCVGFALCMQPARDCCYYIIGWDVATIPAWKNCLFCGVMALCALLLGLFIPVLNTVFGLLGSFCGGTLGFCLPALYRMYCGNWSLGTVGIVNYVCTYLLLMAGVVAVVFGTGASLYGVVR

B1: TcCAT1.1 (Trypanosoma cruzi) (protein)
chain: MDTESGNIAPGNDPVVVPELGSENGSGVKWRRTSSGMGALRCFTNIIPYGGLLSTTFNLASATLGGGVISLAAGFQMSGVAFSIILLVLVTVCTVYSVGLMMQAVEMTGYNSYAELSKKLFGRGWDHFTVVLTWLFTFGTCVGYVIAIGRLLEPVLSDPSLPEFWRSEAGNRAVTSAIWFVGMFSLSLPKEINSLRYASAVGVICIYYFIACIVVHSVQHGFRGGKLRDDVAMFKSGNGAIEGLSIFMFSYLCHMNCFSIFGEMRKPSARRMTLHTACSMALCCIAYIVAGFFGYADFGDEVTDTVLVFYDVRRDVLMAIAYAGIVFKLCVGFALCMQPARDCCYYIIGWDVATIPAWKNCLFCGVMALCALLLGLFIPVLNTVFGLLGSFCGGTLGFCLPALYRMYCGNWSLGTVGIVNYVCTYLLLMAGVVAVVFGTGASLYGVVR
notes: full-length ORF, untagged, pYES2, expressed in S. cerevisiae HSC100-3C (can1 gap1 lyp1); 10 predicted transmembrane helices

What follows are molecules tested against T1, TcCAT1.1 (assay: competition of [3H]-arginine uptake in transformed S. cerevisiae). Conditions: 1000 µM; 10 µM [3H]-arginine, 1 mM competitor, 30 min, room temperature.
Assay type: cell-based
Text: competition of [3H]-arginine uptake in transformed S. cerevisiae on TcCAT1.1

`C[C@H](N)C(=O)O` [alanine] and `CC(C)C[C@H](N)C(=O)O` [leucine] are within error of each other in “[^3H]-Arginine uptake(%)” value: 67.9 ± 2.6% for the first, 67.7 ± 16.2% for the second.

`NC(=O)C[C@H](N)C(=O)O` [asparagine] and `NC(=O)CC[C@H](N)C(=O)O` [glutamine] are within error of each other in “[^3H]-Arginine uptake(%)” value: 78.0 ± 6.1% for the first, 74.2 ± 25.6% for the second.

`N[C@@H](Cc1cnc[nH]1)C(=O)O` [histidine] and `NCCCC[C@H](N)C(=O)O` [lysine] are within error of each other in “[^3H]-Arginine uptake(%)” value: 67.3 ± 8.8% for the first, 78.0 ± 26.7% for the second.

`N=C(N)NCCCC[C@H](N)C(=O)O` [homoarginine] and `NCCCNCCCCNCCCN` [spermine] are within error of each other in “[^3H]-Arginine uptake(%)” value: 65.5 ± 12.1% for the first, 65.0 ± 6.6% for the second.

For `O=C(O)[C@@H]1CCCN1` [proline], the “[^3H]-Arginine uptake(%)” value was 72.3 ± 12.1%.

Same assay, conditions: 1000 µM; 10 µM [3H]-arginine, 1 mM competitor, 30 min, room temperature; possible substrate

With `N=C(N)NOCC[C@H](N)C(=O)O` [canavanine] the “[^3H]-Arginine uptake(%)” value was 28.9 ± 6.3%.

Each molecule was assayed on N=C(N)NCCC[C@H](N)C(=O)O (assay: radiolabelled uptake in transformed S. cerevisiae, Michaelis-Menten fit). Conditions: labelled compound; glucose-repressed background subtracted; three trials.
Assay type: cell-based, Trypanosoma cruzi
Text: radiolabelled uptake in transformed S. cerevisiae, Michaelis-Menten fit on TcCAT1.1

For B1, the Km was 85 ± 40 µM.
